# Results reported in PMC8892522 (Proceedings of the National Academy of Sciences of the …, 2022).
# Assays:
# [1] = target: T1, soluble epoxide hydrolase (sEH) (Mus musculus, UniProt P34914); experiment: fluorescent substrate; assay type: biochemical
# T1 sequence (P34914 1-554): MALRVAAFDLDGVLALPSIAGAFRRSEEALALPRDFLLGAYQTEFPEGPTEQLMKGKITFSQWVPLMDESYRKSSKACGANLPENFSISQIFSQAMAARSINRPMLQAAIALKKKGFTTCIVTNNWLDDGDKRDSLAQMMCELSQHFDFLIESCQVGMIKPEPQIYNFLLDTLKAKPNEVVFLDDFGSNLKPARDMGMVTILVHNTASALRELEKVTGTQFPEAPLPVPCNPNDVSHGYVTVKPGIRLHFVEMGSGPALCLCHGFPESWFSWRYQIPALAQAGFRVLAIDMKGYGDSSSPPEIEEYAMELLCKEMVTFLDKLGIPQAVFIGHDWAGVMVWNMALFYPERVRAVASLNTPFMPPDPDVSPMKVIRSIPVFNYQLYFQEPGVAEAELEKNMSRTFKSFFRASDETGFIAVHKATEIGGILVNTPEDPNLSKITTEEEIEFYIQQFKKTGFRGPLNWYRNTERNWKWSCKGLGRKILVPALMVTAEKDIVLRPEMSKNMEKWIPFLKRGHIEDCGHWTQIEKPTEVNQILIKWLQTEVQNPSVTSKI
# [2] = target: T2, soluble epoxide hydrolase (sEH) (Homo sapiens, UniProt P34913); experiment: cocrystal structure; assay type: binding
# T2 sequence (P34913 230-555): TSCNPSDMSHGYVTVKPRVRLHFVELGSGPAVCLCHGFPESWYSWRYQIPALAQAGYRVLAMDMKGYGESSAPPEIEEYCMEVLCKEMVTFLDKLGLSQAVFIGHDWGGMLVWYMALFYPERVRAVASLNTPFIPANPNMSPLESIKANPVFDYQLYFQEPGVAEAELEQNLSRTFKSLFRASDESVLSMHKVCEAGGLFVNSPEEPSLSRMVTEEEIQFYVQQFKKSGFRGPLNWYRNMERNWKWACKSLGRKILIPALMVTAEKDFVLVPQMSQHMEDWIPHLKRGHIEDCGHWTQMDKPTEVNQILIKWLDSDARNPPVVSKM
smiles,measurement,setting,value
C=C(C)[C@H](CC=C(C)C)Cc1c(O)cc(OC)c2c1O[C@H](c1ccc(O)cc1O)CC2=O [kurarinone],IC50,[1],420 nM
same,Kd,[2],1450 nM
